The source of these data is patent US8507536B2, “Gonadotropin-releasing hormone receptor antagonists and methods relating thereto” (Neurocrine Biosciences, Inc., priority 2007, dated 2013).

This experiment has as its target T1, human GnRH receptor (Homo sapiens, UniProt P30968).
T1 construct: expressed in transfected cells; membrane preparations
T1 sequence (P30968 1-328): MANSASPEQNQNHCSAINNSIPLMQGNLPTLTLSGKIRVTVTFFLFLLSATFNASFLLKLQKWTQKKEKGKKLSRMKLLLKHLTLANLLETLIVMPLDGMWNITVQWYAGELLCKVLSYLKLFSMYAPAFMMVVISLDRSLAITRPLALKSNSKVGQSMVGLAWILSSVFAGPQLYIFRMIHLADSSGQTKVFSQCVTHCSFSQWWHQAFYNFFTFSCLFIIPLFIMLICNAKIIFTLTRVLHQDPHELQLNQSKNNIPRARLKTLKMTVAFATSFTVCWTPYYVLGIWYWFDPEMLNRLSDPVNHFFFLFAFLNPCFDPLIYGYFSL
In words: peptide competitive human receptor binding assays (radioligand displacement). The note with it: tested in one or more of the peptide competitive human receptor binding assays. The procedure:
HEK293 cells stably transfected with the human GnRH receptor are grown for two days after achieving confluence then are harvested by striking tissue culture flasks against a firm surface. Cells are collected by centrifugation at 1000 g for […]. Cell pellets are resuspended in 5% sucrose and homogenized using a polytron homogenizer for two 15 second homogenization steps. Cell homogenates are then centrifuged for 5 minutes at 3000 g to remove nuclei and the supernatant subsequently centrifuged for 30 minutes at 44,000 g to collect the membrane fraction. The membrane pellet is resuspended in GnRH binding buffer (10 mM HEPES, pH 7.5, 150 mM NaCl and 0.1% BSA) and aliquots immediately snap-frozen in liquid nitrogen and stored at −80° C. Protein content of the membrane suspension is determined using the Bio-Rad protein assay kit (Bio-Rad).
RBL cells stably transfected with the human GnRH receptor are grown to 80% confluency prior to harvesting. The cells are incubated at 37° C. for 10 min in 0.5 mM EDTA/PBS (Ca^++, Mg^++ free), and are dislodged from the plate by gentle rapping of the flasks. Cells are collected and pelleted by centrifugation at 1000 g for 5 minutes. Cell pellets are resuspended in buffer (DPBS supplemented with 10 mM MgCl2, 2 mM EGTA, pH=7.4), and cell lysis is performed using a pressure cell and applying N2 at a pressure of 900 psi for 30 min at 4° C. Unbroken cells and larger debris were removed by centrifugation at 1200 g for 10 min at 4° C. The cell membrane supernatant is then centrifuged at 45,000 g and the resulting membrane pellet is resuspended in assay buffer and homogenized on ice using a tissue homogenizer. Protein concentrations are determined using the Coomassie Plus Protein Reagent kit. Membranes are aliquoted and stored at −80° C. until ready for use.
Radioligand binding displacement assays using the peptide radioligands are performed in buffer containing 10 mM HEPES, 150 mM NaCl and 0.1% BSA, pH=7.5. Radioligand binding assays employing the use of [^3H]-1-(2,6-difluorobenzyl)-3-[(2R)-amino-2-phenethyl]-5-(2-fluoro-3-methoxyphenyl)-6-methyluracil (here the 3-methoxy group is tritiated) are run in buffer containing 50 mM Tris, 150 mM NaCl, 5 mM MgCl2, 0.01% saponin and 0.5 mM EDTA, pH=7.5. Radioligand displacement assays are performed by incubating radioligand ([^125I-Tyr^5, DLeu^6, NMeLeu^7, Pro^9-NEt]GnRH (0.1 nM), [His^5, ^125I-DTyr^6]GnRH (0.2 nM) (31) or [^3H]-1-(2,6-difluorobenzyl)-3-[(2R)-amino-2-phenethyl]-5-(2-fluoro-3-methoxyphenyl)-6-methyluracil (1 nM)), unlabeled competitors at concentrations ranging from 0.3 pM to 10 μM, and membranes for 2 hrs at rt. 10 to 20 μg protein/well is used from membrane preparations for human, monkey and rabbit GnRH receptor. 5 μg/well and 60 μg/well of membranes are used for rat and dog GnRH receptors, respectively. Binding assays are performed in either Millipore 96-well GF/C filtration plates (for ([^125I-Tyr^5, DLeu^6, NMeLeu^7, Pro^9-NEt]GnRH assays), or in 96 well low binding plates, which are subsequently filtered onto GF/C Unifilters. Filters are pretreated with 0.5% PEI for 30 min prior to use. Reactions are terminated by rapid vacuum filtration, and the filters are washed twice with 250 μL ice cold PBS pH=7.4 (0.01% Tween-20 is included in wash media for [His^5, ^125I-DTyr^6]GnRH and [^3H]-1-(2,6-difluorobenzyl)-3-[(2R)-amino-2-phenethyl]-5-(2-fluoro-3-methoxyphenyl)-6-methyluracil radioligands). The filters are dried, and the Millipore filters are monitored for radioactivity using a Cobra II gamma counter (Perkin Elmer Life Sciences). For assays filtered onto the GF/C Unifilter plates, 50 μL scintillation fluid is added to each filter, and radioactivity is monitored using a TopCount NXT. For iodinated radioligands, total radioligand is monitored on a gamma counter, and for the tritiated radioligand, total radioligand is monitored using a Perkin Elmer 1600TR liquid scintillation counter. […]
(In general: Loss of bound radioactivity is the signal in a displacement assay; it reports binding, not function.)

The structures appear in SMILES notation.

On to `COc1cc(Cl)c(-c2cnc(C(F)(F)F)cc2C#N)cc1S(=O)(=O)N(C)Cc1cccc(C)n1` [Example 15-38], for which the Ki (in general, the dissociation constant of the complex between target and ligand, obtained from inhibition or displacement) is ≤ 100 nM. As to `COc1cc(Cl)c(-c2cnc(C(F)(F)F)cc2C#N)cc1S(=O)(=O)N(C)Cc1ccco1` [Example 15-39], the Ki was ≤ 100 nM. With `COc1cc(Cl)c(-c2cnc(C(F)(F)F)cc2C#N)cc1S(=O)(=O)N(C)[C@H](C)c1ccccc1` [Example 15-43], the Ki is ≤ 100 nM.

As for `COc1cc(Cl)c(-c2cnc(C(F)(F)F)cc2C#N)cc1S(=O)(=O)N(C)[C@@H](C)c1ccccc1` [Example 15-44], the Ki was ≤ 100 nM. Next, `COC(=O)Cc1cc(Cl)c(-c2cnc(C(F)(F)F)cc2C#N)cc1S(=O)(=O)N1CCC(C)(C)c2ccccc21` [Example 16-1, [5-Chloro-4-(4-cyano-6-trifluoromethyl-pyridin-3-yl)-2-(4,4-dimethyl-3,4-dihydro-2H-quinoline-1-sulfonyl)-phenyl]-acetic acid methyl ester]: ≤ 100 nM. Next, `CC1(C)CCN(S(=O)(=O)c2cc(-c3cnc(C(F)(F)F)cc3C#N)c(Cl)cc2CC(=O)O)c2ccccc21` [Example 17-1, [5-Chloro-4-(4-cyano-6-trifluoromethyl-pyridin-3-yl)-2-(4,4-dimethyl-3,4-dihydro-2H-quinoline-1-sulfonyl)-phenyl]-acetic acid]: ≤ 100 nM.

As to `CN(c1ccccn1)S(=O)(=O)c1cc(-c2cnc(C(F)(F)F)cc2C#N)c(Cl)cc1OCCCC(=O)O` [Example 18-1, 4-[5-chloro-4-(4-cyano-6-trifluoromethyl-pyridin-3-yl)-2-(methyl-pyridin-2-yl-sulfamoyl)-phenoxy]-butyric acid], the Ki was ≤ 100 nM.

On to `CN(c1ccccn1)S(=O)(=O)c1cc(-c2cnc(C(F)(F)F)cc2C#N)c(Cl)cc1OCCC(=O)O` [Example 18-2, 3-[5-chloro-4-(4-cyano-6-trifluoromethyl-pyridin-3-yl)-2-(methyl-pyridin-2-yl-sulfamoyl)-phenoxy]-propionic acid], for which the Ki is ≤ 100 nM. As for `CN(c1ccccn1)S(=O)(=O)c1cc(-c2cnc(C(F)(F)F)cc2C#N)c(Cl)cc1OCC(=O)O` [Example 18-3, [5-chloro-4-(4-cyano-6-trifluoromethyl-pyridin-3-yl)-2-(methyl-pyridin-2-yl-sulfamoyl)-phenoxy]-acetic acid], the Ki is ≤ 100 nM. Consider `CN(c1ccccc1)S(=O)(=O)c1cc(-c2cnc(C(F)(F)F)cc2C#N)c(Cl)cc1OCC(=O)O` [Example 19-1, [5-chloro-4-(4-cyano-6-trifluoromethyl-pyridin-3-yl)-2-(methyl-phenyl-sulfamoyl)-phenoxy]-acetic acid], for which the Ki is ≤ 100 nM.
